Laboratory results taken from PubChem BioAssay (NCI).
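Values below derive from 48-hour exposures of cells grown in 96-well plates, with endpoints linearly interpolated between the two concentrations bracketing the appropriate inhibition level. At the GI50, growth is halved. The concentration for full growth arrest is given as TGI.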

Experiments:
Assay in all cases: NCI tumour cell line growth inhibition, 48 h
KM12 colon = test system: KM12 colon
HCT-15 colon = test system: HCT-15 colon
HCT-116 colon = test system: HCT-116 colon
UACC-62 melanoma = test system: UACC-62 melanoma
SF-539 CNS = test system: SF-539 CNS
NCI-H460 lung = test system: NCI-H460 lung
RPMI-8226 leukemia = test system: RPMI-8226 leukemia
A549 NSCLC = test system: A549 NSCLC
OVCAR-4 ovarian = test system: OVCAR-4 ovarian
RXF 393 renal = test system: RXF 393 renal

With `Cn1c(=O)c2[nH]cnc2n(CC(N)=O)c1=O` the TGI (KM12 colon) was > 100 µM, the TGI (HCT-15 colon) was > 100 µM and the TGI (HCT-116 colon) was > 100 µM. The TGI (UACC-62 melanoma) was > 100 µM, the TGI (SF-539 CNS) was > 100 µM and the TGI (NCI-H460 lung) was > 100 µM. For the same compound, the TGI (RPMI-8226 leukemia) was > 100 µM and the TGI (A549 NSCLC) was > 100 µM.

`CC1=C(C)C2(O)C(=C(C)C1=O)/C(=C(/O)c1ccccc1)c1nc3ccccc3n12` (stereo unspecified) showed a GI50 (OVCAR-4 ovarian) of 13.5 µM, a TGI (OVCAR-4 ovarian) of 27.1 µM and a GI50 (KM12 colon) of 17.6 µM. It also gave a TGI (KM12 colon) of 37.6 µM, a GI50 (HCT-15 colon) of 19.3 µM and a TGI (HCT-15 colon) of 46.5 µM. The GI50 (HCT-116 colon) was 29.4 µM, the TGI (HCT-116 colon) was 72 µM and the GI50 (SF-539 CNS) was 21.7 µM. It also gave a TGI (SF-539 CNS) of 44.5 µM, a GI50 (NCI-H460 lung) of 18.5 µM and a TGI (NCI-H460 lung) of 50.8 µM. For the same compound, the GI50 (RPMI-8226 leukemia) was 13.2 µM, the TGI (RPMI-8226 leukemia) was 33.2 µM and the GI50 (A549 NSCLC) was 19.3 µM. The TGI (A549 NSCLC) was 44.4 µM, the GI50 (RXF 393 renal) was 15.3 µM and the TGI (RXF 393 renal) was 34.5 µM.

With `c1ccc(P(=C2c3ccccc3-c3ccccc32)(c2ccccc2)c2ccccc2)cc1` the TGI (OVCAR-4 ovarian) was > 100 µM, the TGI (KM12 colon) was 5.58 µM and the TGI (HCT-15 colon) was 52.2 µM. It also gave a TGI (UACC-62 melanoma) of 14.1 µM, a TGI (SF-539 CNS) of 36.7 µM and a TGI (NCI-H460 lung) of 19.2 µM. The TGI (A549 NSCLC) was 29.6 µM and the TGI (RXF 393 renal) was 93.8 µM.

For `CN(C)c1ccc(C(c2ccc(Cl)cc2)c2ccc(N(C)C)cc2)cc1`, the TGI (KM12 colon) was > 100 µM, the TGI (HCT-15 colon) was > 100 µM and the TGI (HCT-116 colon) was > 100 µM. The TGI (UACC-62 melanoma) was > 100 µM, the TGI (SF-539 CNS) was > 100 µM and the TGI (NCI-H460 lung) was > 100 µM. For the same compound, the TGI (RPMI-8226 leukemia) was > 100 µM, the TGI (A549 NSCLC) was > 100 µM and the TGI (RXF 393 renal) was > 100 µM.

For `CCn1c2c(c3ccccc31)C(c1ccccc1)CC1C(=O)N(c3ccccc3)C(=O)C21` (stereo unspecified), the TGI (OVCAR-4 ovarian) was > 100 µM, the TGI (KM12 colon) was > 100 µM and the TGI (HCT-15 colon) was > 100 µM. The TGI (HCT-116 colon) was > 100 µM, the TGI (UACC-62 melanoma) was > 100 µM and the TGI (SF-539 CNS) was > 100 µM. The TGI (NCI-H460 lung) was > 100 µM and the TGI (A549 NSCLC) was > 100 µM.

In the case of `CCN1C[C@]2(COC)[C@H](O)C[C@H](OC)[C@]34C1[C@H]([C@H](OC)[C@H]23)[C@]1(OC(C)=O)[C@H]2[C@@H](OC(=O)c3ccccc3)[C@](O)(C[C@H]24)[C@@H](OC)[C@@H]1O`, the TGI (OVCAR-4 ovarian) is reported as > 100 µM, the TGI (KM12 colon) is reported as > 100 µM and the TGI (HCT-15 colon) is reported as > 100 µM. For the same compound, the TGI (HCT-116 colon) was > 100 µM, the TGI (UACC-62 melanoma) was > 100 µM and the TGI (SF-539 CNS) was > 100 µM. For the same compound, the TGI (NCI-H460 lung) was > 100 µM and the TGI (A549 NSCLC) was > 100 µM.

In the case of `CCCCCCCC(=O)OCC(=O)[C@]1(O)Cc2c(O)c3c(c(O)c2[C@@H](OC2CC(N)C(O)C(C)O2)C1)C(=O)c1c(OC)cccc1C3=O` (stereo partly specified), the GI50 (KM12 colon) is reported as 0.188 µM, the TGI (KM12 colon) is reported as 0.758 µM and the GI50 (HCT-15 colon) is reported as 0.703 µM. The TGI (HCT-15 colon) was 2.14 µM, the GI50 (HCT-116 colon) was 0.0742 µM and the TGI (HCT-116 colon) was 1.09 µM. It also gave a GI50 (UACC-62 melanoma) of 0.033 µM, a TGI (UACC-62 melanoma) of 0.494 µM and a GI50 (SF-539 CNS) of 0.166 µM. For the same compound, the TGI (SF-539 CNS) was 1 µM and the TGI (NCI-H460 lung) was 0.196 µM.

For `COc1cc2c(=O)n(CCN(C)C)c3c4cc5c(cc4ccc3c2cc1OC)OCO5`, the GI50 (OVCAR-4 ovarian) was 0.445 µM, the TGI (OVCAR-4 ovarian) was 5.53 µM and the GI50 (KM12 colon) was 0.53 µM. The TGI (KM12 colon) was 4.04 µM, the GI50 (HCT-15 colon) was 0.391 µM and the TGI (HCT-15 colon) was 1.83 µM. It also gave a GI50 (HCT-116 colon) of 0.195 µM, a TGI (HCT-116 colon) of 2.01 µM and a GI50 (UACC-62 melanoma) of 0.115 µM. For the same compound, the TGI (UACC-62 melanoma) was 0.435 µM, the GI50 (SF-539 CNS) was 0.181 µM and the TGI (SF-539 CNS) was 0.863 µM. It also gave a GI50 (NCI-H460 lung) of 0.123 µM, a TGI (NCI-H460 lung) of 0.592 µM and a GI50 (RPMI-8226 leukemia) of 0.159 µM. It also gave a TGI (RPMI-8226 leukemia) of 0.8 µM, a GI50 (RXF 393 renal) of 0.363 µM and a TGI (RXF 393 renal) of 1.14 µM.

`COC1C2c3cc4c(cc3CC(C#N)(c3ccccc32)N1C(=O)c1ccccc1)OCO4` (stereo unspecified) was tested, and the TGI (KM12 colon) was > 100 µM, the TGI (HCT-15 colon) was > 100 µM and the TGI (HCT-116 colon) was > 100 µM. The TGI (UACC-62 melanoma) was > 100 µM, the TGI (SF-539 CNS) was > 100 µM and the TGI (NCI-H460 lung) was > 100 µM. For the same compound, the TGI (RPMI-8226 leukemia) was > 100 µM and the TGI (RXF 393 renal) was > 100 µM.
